Assay results: US9828350B2, “5,6-dihydro-2H-[1,4]oxazin-3-yl-amine derivatives useful as inhibitors of beta-secretase (BACE)” (Janssen Pharmaceutica NV, priority 2010, dated 2017)

Columns and labels:
[1] = molecular target: recombinant BACE1 protein (Homo sapiens, UniProt P56817); assay: Biochemical FRET based assay; settings: recombinant BACE1 1 μg/ml, 120 minutes at room temperature, pH 5.0; for IC50: read-out: Biochemical FRET based assay pIC50 (converted)
Summary of the method: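 Proteolysis was read as the rise in donor fluorescence (320 nm excitation, 405 nm emission) from T0 to T120, expressed in RFU. The reaction ran 120 minutes at room temperature at pH 5.0 in citrate buffer with 4% DMSO, using […] quenched Swedish APP peptide and 1 μg/ml BACE1.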

Abeta total = assay: Cellular αLisa assay in SKNBE2 cells, Abeta total; type: cell-based, human; settings: incubated for 18 hours; for IC50: Homo sapiens, SKNBE2, 18 h, read-out: Cellular αLisa assay in SKNBE2 cells Abetatotal pIC50 (converted)
Summary of the method: (§1)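 Secreted Abeta levels were measured by sandwich αLisa, pairing biotin-AbN/25 donor beads with Ab4G8 acceptor beads for total Abeta or cAb42/26 for Abeta 1-42, read at 615 nm after 650 nm excitation following 1 hour. Cells were SKNBE2 expressing wild-type hAPP695, exposed to compound for 18 hours.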

Abeta 1-42 = assay: Cellular αLisa assay in SKNBE2 cells, Abeta 1-42; type: cell-based, human; settings: incubated for 18 hours; for IC50: Homo sapiens, SKNBE2, 18 h, read-out: Cellular αLisa assay in SKNBE2 cells Abeta 42 pIC50 (converted)
Summary of the method: as §1

Aβ42 = assay: Demonstration of in vivo efficacy, brain Aβ42 lowering (ELISA); settings: mouse brain
Source text: (§2) To determine whether acute administration of an Aβ42 peptide lowering agent would reduce Aβ peptide levels in vivo, non-transgenic rodents, e.g. mice or rats were used. Animals treated with the Aβ peptide lowering agent were examined and compared to those untreated or treated with vehicle and brain levels of soluble Aβ42 and total Aβ were quantitated by standard techniques, for example, using ELISA.
(§3) A typical protocol for measuring Aβ42 lowering in vivo is shown but it is only one of many variations that could be used to optimize the levels of detectable Aβ. For example, Aβ peptide lowering compounds were formulated in 20% hydroxypropyl 3 cyclodextrin. The Aβ peptide lowering agents were administered as a single oral dose (p.o.) or a single subcutaneous dose (s.c.) to overnight fasted animals. After a certain time, usually 2 or 4 h (as indicated in Table 19), the animals were sacrificed and Aβ42 levels were analysed.
(§4) Blood was collected by decapitation and exsanguinations in EDTA-treated collection tubes. Blood was centrifuged at 1900 g for 10 minutes (min) at 4° C. and the plasma recovered and flash frozen for later analysis. The brain was removed from the cranium and hindbrain. The cerebellum was removed and the left and right hemisphere were separated. The left hemisphere was stored at −18° C. for quantitative analysis of test compound levels. The right hemisphere was rinsed with phosphate-buffered saline (PBS) buffer and immediately frozen on dry ice and stored at −80° C. until homogenization for biochemical assays.
(§5) Mouse brains from non-transgenic animals were resuspended in 8 volumes of 0.4% DEA (diethylamine)/50 mM NaCl containing protease inhibitors (Roche-11873580001 or 04693159001) per gram of tissue, e.g. for 0.158 g brain, add 1.264 ml of 0.4% DEA. All samples were homogenized in the FastPrep-24 system (MP Biomedicals) using lysing matrix D (MPBio #6913-100) at 6 m/s for 20 seconds. Homogenates were centrifuged at 221.300×g for 50 min. The resulting high speed supernatants were then transferred to fresh eppendorf tubes. Nine parts of supernatant were neutralized with 1 part 0.5 M Tris-HCl pH 6.8 and used to quantify Aβtotal and Aβ42.
(§6) To quantify the amount of Aβtotal and Aβ42 in the soluble fraction of the brain homogenates, Enzyme-Linked-Immunosorbent-Assays were used. Briefly, the standards (a dilution of synthetic Aβ1-40 and Aβ1-42, Bachem) were prepared in 1.5 ml Eppendorf tube in Ultraculture, with final concentrations ranging from 10000 to 0.3 pg/ml. The samples and standards were co-incubated with HRPO-labelled N-terminal antibody for Aβ42 detection and with the biotinylated mid-domain antibody 4G8 for Aβtotal detection. […] The plate was allowed to incubate overnight at 4° C. in order to allow formation of the antibody-amyloid complex. Following this incubation and subsequent wash steps the ELISA for Aβ42 quantification was finished by addition of Quanta Blu fluorogenic peroxidase substrate according to the manufacturer's instructions (Pierce Corp., Rockford, Ill.). A reading was performed after 10 to 15 min (excitation 320 nm/emission 420 nm).

Aβtotal = assay: Demonstration of in vivo efficacy, brain Aβtotal lowering (ELISA); settings: mouse brain
Source text: as §2, §3, §4, §5, §6
For Aβtotal detection, a Streptavidine-Peroxidase-Conjugate was added, followed 60 min later by an additional wash step and addition of Quanta Blu fluorogenic peroxidase substrate according to the manufacturer's instructions (Pierce Corp., Rockford, Ill.). A reading was performed after 10 to 15 min (excitation 320 nm/emission 420 nm).

P-gp = molecular target: T1, P-gp (Homo sapiens, UniProt P08183); assay: Transepithelial transport of test compounds through LLC-MDR1 monolayers; type: in vitro ADME; settings: for efflux ratio at 120 min, 1 μM / Papp A→B at 120 min, 1 μM / Papp B→A at 120 min, 1 μM: pig, LLC-PK1; for efflux ratio at 120 min, 1 μM: read-out: BA/AB; for Papp A→B at 120 min, 1 μM: read-out: A to B (Apparent Permeability, Papp); for Papp B→A at 120 min, 1 μM: read-out: B to A (Apparent Permeability, Papp)
T1 construct: expressed in transfected cells; host or cells: LLC-PK1 cells stably transduced with MDR1 (LLC-MDR1)
T1 sequence (P08183 whole entry): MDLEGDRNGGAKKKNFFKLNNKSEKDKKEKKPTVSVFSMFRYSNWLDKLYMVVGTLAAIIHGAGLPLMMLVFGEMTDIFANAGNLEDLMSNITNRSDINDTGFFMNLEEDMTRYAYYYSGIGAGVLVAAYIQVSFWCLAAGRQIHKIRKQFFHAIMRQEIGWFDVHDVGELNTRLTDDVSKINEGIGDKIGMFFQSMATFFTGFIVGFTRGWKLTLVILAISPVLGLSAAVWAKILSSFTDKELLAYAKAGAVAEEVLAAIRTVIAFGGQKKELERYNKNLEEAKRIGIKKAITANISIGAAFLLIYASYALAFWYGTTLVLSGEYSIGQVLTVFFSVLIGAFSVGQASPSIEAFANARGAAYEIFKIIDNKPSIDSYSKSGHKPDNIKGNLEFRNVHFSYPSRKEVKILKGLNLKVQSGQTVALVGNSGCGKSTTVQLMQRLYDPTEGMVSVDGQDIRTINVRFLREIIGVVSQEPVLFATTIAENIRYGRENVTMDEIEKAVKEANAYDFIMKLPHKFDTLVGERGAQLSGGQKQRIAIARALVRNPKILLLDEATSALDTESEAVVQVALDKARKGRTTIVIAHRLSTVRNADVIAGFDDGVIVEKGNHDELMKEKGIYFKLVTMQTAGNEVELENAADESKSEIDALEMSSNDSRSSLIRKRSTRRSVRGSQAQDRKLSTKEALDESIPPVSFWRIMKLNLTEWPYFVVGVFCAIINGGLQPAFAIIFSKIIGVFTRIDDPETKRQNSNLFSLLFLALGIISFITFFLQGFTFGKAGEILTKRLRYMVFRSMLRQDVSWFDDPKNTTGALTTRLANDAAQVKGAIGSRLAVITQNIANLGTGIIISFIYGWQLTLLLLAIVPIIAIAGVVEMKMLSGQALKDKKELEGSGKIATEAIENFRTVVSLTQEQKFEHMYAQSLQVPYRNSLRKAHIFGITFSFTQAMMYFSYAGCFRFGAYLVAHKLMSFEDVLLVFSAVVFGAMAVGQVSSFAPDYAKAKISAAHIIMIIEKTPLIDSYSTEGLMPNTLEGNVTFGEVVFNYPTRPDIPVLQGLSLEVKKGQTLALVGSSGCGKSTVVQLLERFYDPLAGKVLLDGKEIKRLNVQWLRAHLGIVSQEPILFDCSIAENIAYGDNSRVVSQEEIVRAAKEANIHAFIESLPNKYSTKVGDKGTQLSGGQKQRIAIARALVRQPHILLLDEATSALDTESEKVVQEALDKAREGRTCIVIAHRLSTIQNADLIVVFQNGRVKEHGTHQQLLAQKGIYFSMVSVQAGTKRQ
Procedure: Brief Assay Description for the Measurement of Transepithelial Transport of Test Compounds Through LLC-MDR1 Monolayers
The purpose of this assay was to assess both the in vitro passive permeability of test compounds and their ability to be transported substrates of P-gp using LLC-PK1 cells stably transduced with MDR1 in a trans-well system. The positive control for transport was ^3H-digoxin (30 nM) and the positive control inhibitor was GF120918 (5 μM). The marker compound for low permeability was ^14C-Mannitol (1 μM). The test compound concentration was 1 μM.
The integrity of the cellular monolayer was assessed in each incubation well through the inclusion of the fluorescent, low permeability marker compound, Fluorescein.
In detail, LLC-MDR1 cells were seeded on 24-well cell culture inserts (Millicell®-PCF, 0.4 μm, 13 mm diameter, 0.7 cm^2) at 400,000 cells/cm^2. Cell culture medium consisted of Medium 199 supplemented with 10% Foetal Bovine Serum (FBS) and 100 U/ml Penicillin/streptomycin and was replaced the day after seeding and the day before the experiment. The transport experiment was performed 5 days after seeding. On the day of the experiment, solutions of the test compounds were applied to the apical or basolateral side of the monolayers to assess transport in the A to B and B to A directions, respectively. The medium used in the assay was (OPTI-MEM (1×) (GIBCO) with 1 w/v % Bovine Serum Albumin. Inserts were incubated at 37° C. in a humidified incubator containing 5% CO2. Samples from the acceptor and donor compartments were collected after an incubation time of 120 min, to assess the permeability and to allow estimation of the test compound recovery during the experiment, respectively. Transport experiments were performed in triplicate. Absolute test compound concentrations were measured using LC-MS/MS and quantified via a calibration curve.

[2] = LLC-MDR1 monolayers, ratio of B to A and A to B permeation rates

recombinant BACE1 protein, sequence (P56817 46-501): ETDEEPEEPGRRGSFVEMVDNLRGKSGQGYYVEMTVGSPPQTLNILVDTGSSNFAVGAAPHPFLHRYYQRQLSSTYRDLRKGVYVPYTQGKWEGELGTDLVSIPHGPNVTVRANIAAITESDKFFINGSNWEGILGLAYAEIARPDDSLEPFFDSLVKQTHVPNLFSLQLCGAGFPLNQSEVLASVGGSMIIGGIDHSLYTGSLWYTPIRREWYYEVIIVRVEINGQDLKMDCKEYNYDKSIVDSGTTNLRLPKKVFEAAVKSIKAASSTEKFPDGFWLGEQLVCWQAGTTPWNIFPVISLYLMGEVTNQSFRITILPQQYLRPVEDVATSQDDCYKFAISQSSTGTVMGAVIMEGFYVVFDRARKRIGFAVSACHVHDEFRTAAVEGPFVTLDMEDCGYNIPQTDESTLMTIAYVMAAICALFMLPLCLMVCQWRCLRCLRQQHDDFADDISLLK

Compound | Biochemical FRET based assay pIC50 [1] | Cellular αLisa assay in SKNBE2 cells Abetatotal pIC50 (Abeta total) | Cellular αLisa assay in SKNBE2 cells Abeta 42 pIC50 (Abeta 1-42) | IC50 [1] [nM] | IC50 (Abeta total) [nM] | IC50 (Abeta 1-42) [nM] | other results
CC1(c2cc(-c3cncnc3)c(F)cc2F)COCC(N)=N1 (racemic) [Compound 59] | 5.36 | 6.417 | 6.44 |  |  |  | Aβ42 (% Ctrl)_Mean (Aβ42; 30 mpk, s.c., 2 h): 114 % Ctrl; Aβtotal (% Ctrl)_Mean (Aβtotal; 30 mpk, s.c., 2 h): 95 % Ctrl
C[C@]1(c2cc(NC(=O)c3ncc(C#N)cc3Cl)ccc2F)N=C(N)CO[C@@H]1F [Compound 209] |  |  |  | 39.8 | 13.8 | 15.5 | Aβ42 (% Ctrl)_Mean (Aβ42; 10 mpk, p.o., 4 h): 6 % Ctrl; Aβtotal (% Ctrl)_Mean (Aβtotal; 10 mpk, p.o., 4 h): 14 % Ctrl
C[C@@]1(c2cccc(-c3cc(Cl)cc(Cl)c3)c2)COCC(N)=N1 [Compound 52] | 6.06 | 6.66 | 6.68 |  |  |  | Aβ42 (% Ctrl)_Mean (Aβ42; 30 mpk, s.c., 2 h): 68 % Ctrl; Aβtotal (% Ctrl)_Mean (Aβtotal; 30 mpk, s.c., 2 h): 114 % Ctrl
CC1(c2cccc(NC(=O)c3ccc(C#N)cn3)c2)COCC(N)=N1 (single isomer, unassigned) [Compound 50] | 6.93 | 7.88 | 7.91 |  |  |  | Aβ42 (% Ctrl)_Mean (Aβ42; 5 mpk, s.c., 4 h): 133 % Ctrl; Aβtotal (% Ctrl)_Mean (Aβtotal; 5 mpk, s.c., 4 h): 95 % Ctrl
COc1cncc(-c2cccc(C3(C)COCC(N)=N3)c2)c1 (racemic) [Compound 4, rac-5-[3-(5-methoxypyridin-3-yl)phenyl]-5-methyl-5,6-dihydro-2H-1,4-oxazin-3-amine] |  |  |  | 3640 | 219 | 257 | efflux ratio at 120 min, 1 μM (P-gp; [2]): 25.9; melting point: 150 °C
COc1cnc(C(=O)Nc2ccc(F)c([C@@]3(C)N=C(N)CO[C@@H]3F)c2)cn1 [Compound 123] |  |  |  |  | 10.5 | 10.7 | Aβ42 (% Ctrl)_Mean (Aβ42; 10 mpk, p.o., 4 h): 38 % Ctrl; Aβ42 (% Ctrl)_Mean (Aβ42; 10 mpk, s.c., 4 h): 24 % Ctrl; Aβtotal (% Ctrl)_Mean (Aβtotal; 10 mpk, p.o., 4 h): 38 % Ctrl; Aβtotal (% Ctrl)_Mean (Aβtotal; 10 mpk, s.c., 4 h): 21 % Ctrl
CC1(c2cc(-c3cncnc3)ccc2F)N=C(N)COC1C(F)(F)F (single isomer, unassigned) [Compound 106] |  | 6.23 | 6.2 | 4370 |  |  | efflux ratio at 120 min, 1 μM (P-gp; [2]): 1.1; Papp A→B at 120 min, 1 μM (P-gp): 18.2 ×10⁻⁶ cm/s; Papp B→A at 120 min, 1 μM (P-gp): 19.8 ×10⁻⁶ cm/s; melting point: 173.8 °C
COc1cnc(C(=O)Nc2cccc(C3(C4CC4)N=C(N)COC3C(F)(F)F)c2)cn1 (stereo not shown) [Compound 228] | 6.67 | 7.35 | 7.31 |  |  |  | Aβ42 (% Ctrl)_Mean (Aβ42; 30 mpk, p.o., 2 h): 99 % Ctrl; Aβtotal (% Ctrl)_Mean (Aβtotal; 30 mpk, p.o., 2 h): 79 % Ctrl
COc1cnc(C(=O)Nc2ccc(F)c([C@@]3(C4CC4)N=C(N)CO[C@H]3F)c2)cn1 [Compound 217] |  |  |  |  | 490 | 525 | Aβ42 (% Ctrl)_Mean (Aβ42; 30 mpk, p.o., 2 h): 80 % Ctrl; Aβtotal (% Ctrl)_Mean (Aβtotal; 30 mpk, p.o., 2 h): 73 % Ctrl
CC1(c2cc(NC(=O)c3ccc(C#N)cn3)ccc2F)N=C(N)COC1F (single isomer, unassigned) [Compound 124] |  | 8.2 | 8.21 |  |  |  | Aβ42 (% Ctrl)_Mean (Aβ42; 30 mpk, p.o., 4 h): 23 % Ctrl; Aβtotal (% Ctrl)_Mean (Aβtotal; 30 mpk, p.o., 4 h): 25 % Ctrl
COc1cncc(-c2cccc(C3(C)N=C(N)COC3F)c2)c1 (stereo not shown) [Compound 100] |  |  |  | 1550 | 339 | 347 | efflux ratio at 120 min, 1 μM (P-gp; [2]): 3.6; Papp A→B at 120 min, 1 μM (P-gp): 7.6 ×10⁻⁶ cm/s; Papp B→A at 120 min, 1 μM (P-gp): 27.4 ×10⁻⁶ cm/s; melting point: 139.2 °C
C[C@@]1(c2cc(NC(=O)c3ccc(C#N)cn3)ccc2F)COCC(N)=N1 [Compound 43] | 7.14 | 8.45 | 8.34 |  |  |  | A to B (Apparent Permeability, Papp) (P-gp; LLC-MDR1 monolayers, 1 μM test compound, 120 minutes, apical to basolateral, absence of GF120918): 1.4 ×10⁻⁶ cm/s; B to A (Apparent Permeability, Papp) (P-gp; LLC-MDR1 monolayers, 1 μM test compound, 120 minutes, basolateral to apical): 26.6 ×10⁻⁶ cm/s; BA/AB (P-gp; [2]): 18.5
